The nature of data set [1]: Hemolytic activity in human red blood cells at 78 uM incubated for 2 hrs by microplate reader assay relative to control. Format: toxicity, cell-based, Erythrocyte. The settings on record: red blood cells (erythrocytes), read-out: Activity.
The nature of data set [2]: Cytotoxicity against human HCT116-p53-null cells assessed as inhibition of cell growth measured after 72 hrs by MTT assay. The format is functional, cell-based.
For data set [3], the system named is HCT-116. Put plainly: Cytotoxicity against human HCT-116 cells assessed as inhibition of cell growth measured after 72 hrs by MTT assay. The format is functional, cell-based. The settings on record: HCT-116, 72 h. For orientation: Tetrazolium dyes change colour on reduction, which living cells bring about.
Data set [4] has as its system MCF7. Nature of the data set: Cytotoxicity against human MCF7 cells assessed as inhibition of cell growth measured after 72 hrs by MTT assay. The format is functional, cell-based. The settings on record: MCF7, 72 h.
Data set [5] can be described thus: Hemolytic activity in human red blood cells incubated for 2 hrs by microplate reader assay. The format is toxicity, cell-based, Erythrocyte. The settings on record: red blood cells (erythrocytes), read-out: HD50.

From ChEMBL document CHEMBL5137117, “Cytotoxic Cyclotides from Anchietea pyrifolia, a South American Plant Species” (J Nat Prod, 2022) come the findings set out here.

pIC50: −log10 of the molar value. Bridge positions count the residues as written; N and C are the ends. Peptide text beside a SMILES is read from it.

As a reminder, the pIC50 is the IC50 on a negative log10 scale, so that one unit is a factor of ten. Take `CC[C@H](C)[C@@H]1NC(=O)[C@H](C)NC(=O)[C@H](C)NC(=O)[C@H](CO)NC(=O)[C@H]([C@@H](C)CC)NC(=O)[C@@H]2CSSC[C@@H]3NC(=O)[C@H](C(C)C)NC(=O)[C@H](CCCCN)NC(=O)[C@H](CC(N)=O)NC(=O)[C@H](CCCCN)NC(=O)[C@@H]4CSSC[C@H](NC(=O)[C@H](CO)NC(=O)[C@H](CCC(=O)O)NC(=O)CNC(=O)[C@H](CSSC[C@H](NC(=O)CNC1=O)C(=O)N[C@@H](CO)C(=O)N4)NC(=O)[C@@H]1CCCN1C(=O)[C@H]([C@@H](C)CC)NC(=O)CNC(=O)[C@H](CC(N)=O)NC(=O)[C@H](CCCNC(=N)N)NC(=O)[C@H](Cc1ccc(O)cc1)NC3=O)C(=O)N[C@@H](C(C)C)C(=O)N[C@@H](Cc1c[nH]c3ccccc13)C(=O)N[C@@H]([C@@H](C)CC)C(=O)N1CCC[C@H]1C(=O)N2` (cyclo(AAIGCSCKNKVCYRNGIPCGESCVWIPCIS); disulfide 5-19, 7-23, 12-28): the hemolysis at 2 h, 78 µM in data set [1] stood at 23%. Also, the pIC50 in data set [2] is 5.92; in data set [3], 6.10; in data set [4], 5.25. Besides, in data set [5], the HC50 at 2 h is more than 156 µM.

Take `CC[C@H](C)[C@@H]1NC(=O)[C@H](CO)NC(=O)[C@H](CC(N)=O)NC(=O)[C@H](CCCCN)NC(=O)[C@H](Cc2ccc(O)cc2)NC(=O)[C@@H]2CSSC[C@@H]3NC(=O)[C@@H]4CCCN4C(=O)[C@H]([C@@H](C)CC)NC(=O)[C@H](Cc4c[nH]c5ccccc45)NC(=O)[C@H](C(C)C)NC(=O)[C@@H]4CSSC[C@H](NC(=O)[C@H](CO)NC(=O)[C@H](CSSC[C@H](NC(=O)[C@@H]5CCCN5C1=O)C(=O)NCC(=O)N[C@@H](CCC(=O)O)C(=O)N[C@@H](CO)C(=O)N4)NC(=O)CNC(=O)[C@H](C)NC(=O)[C@H](CC(C)C)NC(=O)[C@H](C)NC(=O)[C@H]([C@@H](C)O)NC(=O)[C@H](C(C)C)NC(=O)[C@H]([C@@H](C)O)NC3=O)C(=O)N[C@@H](CCCCN)C(=O)N[C@@H](CC(N)=O)C(=O)N[C@@H](CCCCN)C(=O)N[C@@H](C(C)C)C(=O)N2` (cyclo(AGCSCKNKVCYKNSIPCGESCVWIPCTVTAL); disulfide 3-17, 5-21, 10-26): the hemolysis at 2 h, 78 µM in data set [1] is less than 50%. Further, the figures for the pIC50 in data set [2], in data set [3] and in data set [4] were 5.64, 5.85 and 5.14, respectively. Besides, in data set [5], the HC50 at 2 h is more than 78 µM.

As for `CC[C@H](C)[C@@H]1NC(=O)[C@H](C)NC(=O)[C@H](CO)NC(=O)[C@H](CO)NC(=O)[C@H]([C@@H](C)CC)NC(=O)[C@@H]2CSSC[C@@H]3NC(=O)[C@H](C(C)C)NC(=O)[C@H](CCCCN)NC(=O)[C@H](CC(N)=O)NC(=O)[C@H](CCCCN)NC(=O)[C@@H]4CSSC[C@H](NC(=O)[C@H](CO)NC(=O)[C@H](CCC(=O)O)NC(=O)CNC(=O)[C@H](CSSC[C@H](NC(=O)CNC1=O)C(=O)N[C@@H](CO)C(=O)N4)NC(=O)[C@@H]1CCCN1C(=O)[C@H]([C@@H](C)CC)NC(=O)CNC(=O)[C@H](CC(N)=O)NC(=O)[C@H](CCCNC(=N)N)NC(=O)[C@H](Cc1ccc(O)cc1)NC3=O)C(=O)N[C@@H](C(C)C)C(=O)N[C@@H](Cc1c[nH]c3ccccc13)C(=O)N[C@@H]([C@@H](C)CC)C(=O)N1CCC[C@H]1C(=O)N2` (cyclo(AIGCSCKNKVCYRNGIPCGESCVWIPCISS); disulfide 4-18, 6-22, 11-27), the figures for the pIC50 in data set [2], in data set [3] and in data set [4] were 5.68, 5.85 and 5.15, respectively. In addition, the HC50 at 2 h in data set [5] was more than 156 µM.

For the compound `CC[C@H](C)[C@@H]1NC(=O)[C@H](C)NC(=O)[C@H]([C@@H](C)O)NC(=O)[C@H](C(C)C)NC(=O)[C@H]([C@@H](C)O)NC(=O)[C@@H]2CSSC[C@@H]3NC(=O)[C@H](C(C)C)NC(=O)[C@H](CCCCN)NC(=O)[C@H](CO)NC(=O)[C@H](CCCCN)NC(=O)[C@@H]4CSSC[C@H](NC(=O)[C@H](CO)NC(=O)[C@H](CCC(=O)O)NC(=O)CNC(=O)[C@H](CSSC[C@H](NC(=O)CNC(=O)[C@H]([C@@H](C)CC)NC1=O)C(=O)N[C@@H](CO)C(=O)N4)NC(=O)[C@@H]1CCCN1C(=O)[C@H](CC(C)C)NC(=O)CNC(=O)[C@H](CC(N)=O)NC(=O)[C@H](CCCCN)NC(=O)[C@H](Cc1ccc(O)cc1)NC3=O)C(=O)N[C@@H](C(C)C)C(=O)N[C@@H](Cc1ccccc1)C(=O)N[C@@H](CC(C)C)C(=O)N1CCC[C@H]1C(=O)N2` (cyclo(AIIGCSCKSKVCYKNGLPCGESCVFLPCTVT); disulfide 5-19, 7-23, 12-28), the pIC50 in data set [2] was 5.89; in data set [3] it was 5.96; in data set [4], 5.24.

With `CC[C@H](C)[C@@H]1NC(=O)CNC(=O)[C@H](CO)NC(=O)[C@H]([C@@H](C)CC)NC(=O)[C@@H]2CSSC[C@@H]3NC(=O)[C@H](C(C)C)NC(=O)[C@H](CCCCN)NC(=O)[C@H](CC(N)=O)NC(=O)[C@H](CO)NC(=O)[C@@H]4CSSC[C@H](NC(=O)[C@H](CO)NC(=O)[C@H](CCC(=O)O)NC(=O)CNC(=O)[C@H](CSSC[C@H](NC(=O)CNC(=O)[C@H](CC(C)C)NC1=O)C(=O)N[C@@H](CO)C(=O)N4)NC(=O)[C@@H]1CCCN1C(=O)[C@H](C(C)C)NC(=O)[C@H](CO)NC(=O)CNC(=O)[C@H](CC(N)=O)NC(=O)[C@H](Cc1ccc(O)cc1)NC(=O)[C@H](Cc1ccc(O)cc1)NC3=O)C(=O)N[C@@H](C(C)C)C(=O)N[C@@H](Cc1c[nH]c3ccccc13)C(=O)N[C@@H]([C@@H](C)CC)C(=O)N1CCC[C@H]1C(=O)N2` (cyclo(CGESCVWIPCISGILGCSCSNKVCYYNGSVP); disulfide 1-17, 5-19, 10-24), the hemolysis at 2 h, 78 µM in data set [1] amounted to 87%. In addition, the figures for the pIC50 in data set [2], in data set [3] and in data set [4] were 5.59, 5.64 and 5.29, respectively. In addition, in data set [5], the HC50 at 2 h amounted to 22 µM.

`COc1cccc2c1C(=O)c1c(O)c3c(c(O)c1C2=O)C[C@@](O)(C(=O)CO)C[C@@H]3O[C@H]1C[C@H](N)[C@H](O)[C@H](C)O1` [DOXORUBICIN]: the pIC50 in data set [4] was 6.30.
